Measured values reported in patent publication US20040058880A1, “Aminoglycoside antibiotics as novel anti-infective agents” (priority 2002, published 2004).
In brackets after ≈: the same amount, converted by molar mass.

Columns and labels:
Assay in all cases: In vitro antibacterial MIC, 96-well broth assay
P. aeruginosa ATCC 27853 = assay type: cell-based, Pseudomonas aeruginosa; conditions: growth by A595 after 24 h, 10^5-10^6 CFU/well; for MIC: Pseudomonas aeruginosa, ATCC27853
Experimental: (§1) In Vitro Antibacterial Activity Determination of Minimum Inhibitory Concentrations (MICs).
(§2) The assays are carried out in 96-well flat-bottom plates. The bacterial suspension from an overnight culture grown in appropriate medium is added to a solution of test compound in water. Final bacterial inoculums are approximately 10^5-10^6 CFU/well. The percent growth of bacteria in test wells relative to that observed for a well containing no compound is determined by measuring absorbance at 595 nm (A595) after 24 h. The MIC (μg/mL) is determined as a range of single compound where the complete inhibition of growth is observed at the higher concentration and cells are viable at the lower concentrations. Tobramycin is used as an antibiotic-positive control in each screening assay for Pseudomonas aeruginosa, Acinetobacter species, Streptococci viridans, Proteus species, Hemophilus influenzae, Citrobacter species, Serratia marcescens, Staphylococcus aureus, Streptococcus pyogenes, Escherichia coli, Enterobacter species, Enterococcus faecalis, Enterococcus faecium Klebsiella pneumoniae and Providencia stuartii.

P. aeruginosa ATCC 35151 = assay type: cell-based, Pseudomonas aeruginosa; conditions: growth by A595 after 24 h, 10^5-10^6 CFU/well; for MIC: Pseudomonas aeruginosa, ATCC35151
Experimental: as §1, §2

P. aeruginosa PAO-1 = assay type: cell-based, Pseudomonas aeruginosa; conditions: growth by A595 after 24 h, 10^5-10^6 CFU/well; for MIC: Pseudomonas aeruginosa, PAO1
Experimental: as §1, §2

[1] = system: S. aureus ATCC 29213 (MSSA); assay type: cell-based, Staphylococcus aureus; conditions: growth by A595 after 24 h, 10^5-10^6 CFU/well; for MIC: Staphylococcus aureus
Experimental: as §1, §2

[2] = system: S. aureus ATCC 33591 (MRSA); assay type: cell-based, Staphylococcus aureus; conditions: growth by A595 after 24 h, 10^5-10^6 CFU/well; for MIC: Staphylococcus aureus
Experimental: as §1, §2

E. coli ATCC 25922 = assay type: cell-based, Escherichia coli; conditions: growth by A595 after 24 h, 10^5-10^6 CFU/well; for MIC: Escherichia coli, ATCC25922
Experimental: as §1, §2

E. faecalis ATCC 29212 = assay type: cell-based, Enterococcus faecalis; conditions: growth by A595 after 24 h, 10^5-10^6 CFU/well; for MIC: Enterococcus faecalis, ATCC29212
Experimental: as §1, §2

For `NC[C@H]1O[C@H](O[C@H]2[C@H](O)[C@@H](OCC(O)CNCCCCNCC(O)CO[C@@H]3[C@@H](O)[C@H](O[C@H]4O[C@H](CN)[C@@H](O)C[C@H]4N)[C@@H](N)C[C@H]3N)[C@H](N)C[C@@H]2N)[C@H](N)C[C@@H]1O` (stereo partly drawn) [Compound 13a], the MIC (P. aeruginosa ATCC 27853) was 2 µg/mL (≈ 2.46 µM), the MIC (P. aeruginosa ATCC 35151) was 4 µg/mL (≈ 4.92 µM) and the MIC (P. aeruginosa PAO-1) was 2 µg/mL (≈ 2.46 µM). It also gave an MIC [1] of 0.5 µg/mL (≈ 0.615 µM), an MIC [2] of 16 µg/mL (≈ 19.7 µM) and an MIC (E. coli ATCC 25922) of 4 µg/mL (≈ 4.92 µM). For the same molecule, the MIC (E. faecalis ATCC 29212) was 32 µg/mL (≈ 39.4 µM).

With `NC[C@H]1O[C@H](O[C@H]2[C@H](O)[C@@H](O[C@H]3O[C@H](CO)[C@@H](O)[C@H](N)[C@H]3O)[C@H](N)C[C@@H]2N)[C@H](N)C[C@@H]1O` [Tobramycin, reference compound] the MIC (P. aeruginosa ATCC 27853) was 0.5 µg/mL (≈ 1.07 µM), the MIC (P. aeruginosa ATCC 35151) was 0.5 µg/mL (≈ 1.07 µM) and the MIC (P. aeruginosa PAO-1) was 0.25 µg/mL (≈ 0.535 µM). For the same molecule, the MIC [1] was 0.5 µg/mL (≈ 1.07 µM), the MIC [2] was greater than 64 µg/mL and the MIC (E. coli ATCC 25922) was 1 µg/mL (≈ 2.14 µM). It also gave an MIC (E. faecalis ATCC 29212) of 16 µg/mL (≈ 34.2 µM).

In the case of `NC[C@H]1O[C@H](O[C@H]2[C@H](O)[C@@H](O[C@H]3O[C@H](CO)[C@@H](O)[C@H](O)[C@H]3N)[C@H](N)C[C@@H]2N)[C@H](N)C[C@@H]1O` [Compound 3a, 4-(2,6-diamino-2,3,6-dideoxy-α-D-glucopyranosyl)-6-(2-amino-2-deoxy-1-α-D-glucopyranosyl)-2-deoxystreptamine], the MIC (P. aeruginosa ATCC 27853) is reported as 1 µg/mL (≈ 2.14 µM), the MIC (P. aeruginosa ATCC 35151) is reported as 1 µg/mL (≈ 2.14 µM) and the MIC (P. aeruginosa PAO-1) is reported as 0.5 µg/mL (≈ 1.07 µM). The MIC [1] was 1 µg/mL (≈ 2.14 µM), the MIC [2] was greater than 64 µg/mL and the MIC (E. coli ATCC 25922) was 2 µg/mL (≈ 4.28 µM). For the same molecule, the MIC (E. faecalis ATCC 29212) was 16 µg/mL (≈ 34.2 µM).

`NC[C@H]1O[C@H](O[C@H]2[C@H](OCC(O)CNCCCCNCC(O)CO[C@@H]3[C@@H](O)[C@H](N)C[C@H](N)[C@H]3O[C@H]3O[C@H](CN)[C@@H](O)C[C@H]3N)[C@@H](O)[C@H](N)C[C@@H]2N)[C@H](N)C[C@@H]1O` (stereo partly drawn) [Compound 27a] was tested, and the MIC (P. aeruginosa ATCC 27853) was 4 µg/mL (≈ 4.92 µM), the MIC (P. aeruginosa ATCC 35151) was 8 µg/mL (≈ 9.84 µM) and the MIC (P. aeruginosa PAO-1) was 4 µg/mL (≈ 4.92 µM). For the same molecule, the MIC [1] was 2 µg/mL (≈ 2.46 µM), the MIC [2] was 16 µg/mL (≈ 19.7 µM) and the MIC (E. coli ATCC 25922) was 16 µg/mL (≈ 19.7 µM). For the same molecule, the MIC (E. faecalis ATCC 29212) was 32 µg/mL (≈ 39.4 µM).

“4-(2,6-diamino-2,3,6-dideoxy-α-D-glucopyranosyl)-6-(2-amino-2-deoxy-4-amino-4-deoxy-α-D-glucopyranosyl)-2-deoxystreptamine [Compound 3c]” was tested, and the “MIC P. aeruginosa ATCC 27853” value (P. aeruginosa ATCC 27853) was 2 µg/mL, the “MIC P. aeruginosa ATCC 35151” value (P. aeruginosa ATCC 35151) was 1 µg/mL and the “MIC P. aeruginosa PAO-1” value (P. aeruginosa PAO-1) was 1 µg/mL. For the same molecule, the “MIC S. aureus ATCC 29213 (MSSA)” value [1] was 1 µg/mL, the “MIC S. aureus ATCC 33591 (MRSA)” value [2] was greater than 64 µg/mL and the “MIC E. coli ATCC 25922” value (E. coli ATCC 25922) was 2 µg/mL. The “MIC E. faecalis ATCC 29212” value (E. faecalis ATCC 29212) was 32 µg/mL.

Work on `NCCCCNCC(O)CO[C@@H]1[C@@H](O)[C@H](O[C@H]2O[C@H](CN)[C@@H](O)C[C@H]2N)[C@@H](N)C[C@H]1N` (stereo partly drawn) [Compound 14a] yielded an MIC (P. aeruginosa ATCC 27853) of 32 µg/mL (≈ 71 µM), an MIC (P. aeruginosa ATCC 35151) of 16 µg/mL (≈ 35.5 µM) and an MIC (P. aeruginosa PAO-1) of 16 µg/mL (≈ 35.5 µM). The MIC [1] was 8 µg/mL (≈ 17.8 µM), the MIC [2] was greater than 64 µg/mL and the MIC (E. coli ATCC 25922) was 16 µg/mL (≈ 35.5 µM). For the same molecule, the MIC (E. faecalis ATCC 29212) was greater than 64 µg/mL.

For `NCC1OC(OC2C(N)CC(N)C(OC3OC(CO)C(O)C(OC4OC(CO)C(O)C(O)C4N)C3N)C2O)C(N)CC1O` (stereo not drawn) [Compound 3d, 5-Amino-6-{3-amino-2-[4,6-diamino-3-(3-amino-6-aminomethyl-5-hydroxy-tetrahydro-pyran-2-yloxy)-2-hydroxy-cyclohexyloxy]-5-hydroxy-6-hydroxymethyl-tetrahydro-pyran-4-yloxy}-2-hydroxymethyl-tetrahydro-pyran-3,4-diol], the MIC (P. aeruginosa ATCC 27853) was 64 µg/mL (≈ 102 µM), the MIC (P. aeruginosa ATCC 35151) was 16 µg/mL (≈ 25.5 µM) and the MIC (P. aeruginosa PAO-1) was 32 µg/mL (≈ 50.9 µM). It also gave an MIC [1] of 16 µg/mL (≈ 25.5 µM), an MIC [2] greater than 64 µg/mL and an MIC (E. coli ATCC 25922) of 32 µg/mL (≈ 50.9 µM). For the same molecule, the MIC (E. faecalis ATCC 29212) was greater than 64 µg/mL.

Work on `NC[C@H]1O[C@H](O[C@H]2[C@H](O)[C@@H](O[C@H]3O[C@H](CNC4CC4)[C@@H](O)[C@H](N)[C@H]3O)[C@H](N)C[C@@H]2N)[C@H](N)C[C@@H]1O` [Compound 9a] yielded an MIC (P. aeruginosa ATCC 27853) of 64 µg/mL (≈ 126 µM), an MIC (P. aeruginosa ATCC 35151) of 32 µg/mL (≈ 63.2 µM) and an MIC (P. aeruginosa PAO-1) of 32 µg/mL (≈ 63.2 µM). For the same molecule, the MIC [1] was 8 µg/mL (≈ 15.8 µM), the MIC [2] was 8 µg/mL (≈ 15.8 µM) and the MIC (E. coli ATCC 25922) was 32 µg/mL (≈ 63.2 µM). The MIC (E. faecalis ATCC 29212) was greater than 64 µg/mL.

Work on `NC[C@H]1O[C@H](O[C@H]2[C@H](O)[C@@H](OCCCNCCCCNCCCO[C@@H]3[C@@H](O)[C@H](O[C@H]4O[C@H](CN)[C@@H](O)C[C@H]4N)[C@@H](N)C[C@H]3N)[C@H](N)C[C@@H]2N)[C@H](N)C[C@@H]1O` [Compound 18a] yielded an MIC (P. aeruginosa ATCC 27853) of 16 µg/mL (≈ 20.5 µM), an MIC (P. aeruginosa ATCC 35151) of 32 µg/mL (≈ 41 µM) and an MIC (P. aeruginosa PAO-1) of 8 µg/mL (≈ 10.2 µM). For the same molecule, the MIC [1] was 4 µg/mL (≈ 5.12 µM), the MIC [2] was 32 µg/mL (≈ 41 µM) and the MIC (E. coli ATCC 25922) was 16 µg/mL (≈ 20.5 µM). It also gave an MIC (E. faecalis ATCC 29212) greater than 64 µg/mL.

With `N=C(N)NC[C@H]1O[C@H](O[C@H]2[C@H](O)[C@@H](O[C@H]3O[C@H](CO)[C@@H](O)[C@H](O)[C@H]3N)[C@H](N)C[C@@H]2N)[C@H](N)C[C@@H]1O` [Compound 4a, 4-(2-amino-6-guanidinyl-2,3,6-dideoxy-α-D-glucopyranosyl)-6-(2-amino-2-deoxy-1-α-D-glucopyranosyl)-2-deoxystreptamine] the MIC (P. aeruginosa ATCC 27853) was greater than 64 µg/mL, the MIC (P. aeruginosa ATCC 35151) was greater than 64 µg/mL and the MIC (P. aeruginosa PAO-1) was 64 µg/mL (≈ 126 µM). The MIC [1] was 64 µg/mL (≈ 126 µM), the MIC [2] was greater than 64 µg/mL and the MIC (E. coli ATCC 25922) was 64 µg/mL (≈ 126 µM). It also gave an MIC (E. faecalis ATCC 29212) greater than 64 µg/mL.

`NCCCCNCCCO[C@@H]1[C@@H](O)[C@H](O[C@H]2O[C@H](CN)[C@@H](O)C[C@H]2N)[C@@H](N)C[C@H]1N` [Compound 19a] showed an MIC (P. aeruginosa ATCC 27853) greater than 32 µg/mL, an MIC (P. aeruginosa ATCC 35151) greater than 32 µg/mL and an MIC (P. aeruginosa PAO-1) greater than 32 µg/mL. For the same molecule, the MIC [1] was greater than 32 µg/mL, the MIC [2] was greater than 32 µg/mL and the MIC (E. coli ATCC 25922) was greater than 32 µg/mL. For the same molecule, the MIC (E. faecalis ATCC 29212) was greater than 32 µg/mL.

“4-(2,6-diamino-2,3,6-dideoxy-α-D-glucopyranosyl)-6-(4-amino-4-deoxy-1-α-D-glucopyranosyl)-2-deoxystreptamine [Compound 3b]” was tested, and the “MIC P. aeruginosa ATCC 27853” value (P. aeruginosa ATCC 27853) was 16 µg/mL, the “MIC P. aeruginosa ATCC 35151” value (P. aeruginosa ATCC 35151) was 16 µg/mL and the “MIC P. aeruginosa PAO-1” value (P. aeruginosa PAO-1) was 8 µg/mL. For the same molecule, the “MIC S. aureus ATCC 29213 (MSSA)” value [1] was 32 µg/mL, the “MIC S. aureus ATCC 33591 (MRSA)” value [2] was greater than 64 µg/mL and the “MIC E. coli ATCC 25922” value (E. coli ATCC 25922) was 32 µg/mL. For the same molecule, the “MIC E. faecalis ATCC 29212” value (E. faecalis ATCC 29212) was greater than 64 µg/mL.
